Measurements taken from patent US20120253078A1, “Agent for Improving Carcass Performance in Finishing Hogs” (IGENE BIOTECHNOLOGY, INC., priority 2007, published 2012).

Key:
[1] = 5 ppm astaxanthin in the feed; cited from earlier work
[2] = Growth performance of finishing pigs fed increasing levels of astaxanthin (d 0 to 26); assay type: in vivo, pigs (barrows, PIC TR4×C22 cross); conditions: for ADFI / ADG / F/G / Final Wt.: d 0 to 26
Procedure: Procedures used in the experiment were approved by the Kansas State University Animal Care and Use Committee. The project was conducted at the KSU Swine Teaching and Research Farm. Pigs were housed in an environmentally regulated finishing building with pens over a totally slatted floor that provided approximately 8 ft^2 per pig. Each pen was equipped with a dry self-feeder and one nipple waterer, thereby providing ad libitum access to feed and water. The facility was a mechanically ventilated room with a pull-plug manure storage pit.
(§1) Forty-eight barrows (PIC, TR4×C22 cross) averaging 215 lb were used in the study. Pigs were blocked by weight and randomly allotted to one of the four dietary treatments with two pigs per pen and six pens per treatment. Experimental diets were provided in meal form and astaxanthin (0, 5, 10 and 20 ppm) was added to the control diet at the expense of corn starch to achieve the dietary treatments (Table 1). In Table 1, CP is crude protein; P is […]; ME is metabolizable energy; and TID is true ileal digestible. Pigs and feeders were weighed on day (d) 0, 7, 14, 21 and 26 to determine the growth performance criteria of average daily gain (ADG), average daily food intake (ADFI), and feed conversion (F/G).
(§2) Data were analyzed as a randomized complete block design using the PROC MIXED procedure of SAS with pen as the experimental unit. Linear and quadratic polynomial contrasts were used to determine the effect of increasing astaxanthin.
(§3) The source of natural astaxanthin used in the example was Phaffia rhodozyma which is commercially available under the trade name Aquasta® containing 10,000 ppm astaxanthin, by weight.

[3] = cited from earlier work
[4] = Carcass characteristics and loin eye color of finishing pigs fed astaxanthin; assay type: in vivo, pigs (barrows, PIC TR4×C22 cross); conditions: for Loin eye area / Loin eye color CIE L* / Loin eye color CIE a* / Loin eye color CIE b*: 10th rib; for Loin eye area / Backfat-1st rib / Backfat-10th rib / Backfat-Last Lumbar / Backfat-Last rib: 24-h postmortem; for Loin eye color CIE L* / Loin eye color CIE a* / Loin eye color CIE b*: 30 minutes bloom time
Procedure: as §1
On d 27, one pig per pen was transported to the KSU meats lab for humane slaughter and collection of carcass data. Hot carcass weight was collected immediately after evisceration. First-rib, tenth-rib, last-rib, and last-lumbar backfat depth, as well as loin eye area at the 10th-rib, were collected from the right half of each carcass 24-h postmortem. Additionally, each carcass was evaluated for loin muscle color at the 10th-rib with a Hunter MiniScan instrument to measure CIE L*, a* and b*, known color parameters relating to brightness, red-to-green coloration and yellow-to-blue coloration, as known in the art. That was performed after 30 minutes of bloom time, the time to oxygenate myoglobin thereby obtaining maximal pink or red coloration, for each loin muscle surface.
as §2, §3

[5] = astaxanthin 5, 10, 20 ppm in diet
[6] = 5 ppm astaxanthin in diet for 26 d
[7] = 5 ppm astaxanthin in diet for 26 d before slaughter
[8] = 10 ppm astaxanthin in diet for 26 d
[9] = 10 ppm astaxanthin in diet for 26 d before slaughter
[10] = 20 ppm astaxanthin in diet for 26 d
[11] = 20 ppm astaxanthin in diet for 26 d before slaughter

Structure (SMILES): CC1=C(/C=C/C(C)=C/C=C/C(C)=C/C=C/C=C(C)/C=C/C=C(C)/C=C/C2=C(C)C(=O)C(O)CC2(C)C)C(C)(C)CC(O)C1=O (stereo not drawn) [Astaxanthin, 3,3′-dihydroxy-β,β-carotene-4,4′dione]
- performance of sows (stillborn in the litter, parity) [1]: improved performance of sows
- ADFI ([2]; 5 ppm astaxanthin in diet): 6.76 lb
- ADG ([2]; 5 ppm astaxanthin in diet): 2.23 lb
- F/G ([2]; 5 ppm astaxanthin in diet): 3.05
- Final Wt. ([2]; 5 ppm astaxanthin in diet): 273 lb
- ADFI ([2]; 10 ppm astaxanthin in diet): 6.24 lb
- ADG ([2]; 10 ppm astaxanthin in diet): 2.03 lb
- F/G ([2]; 10 ppm astaxanthin in diet): 3.08
- Final Wt. ([2]; 10 ppm astaxanthin in diet): 268 lb
- ADFI ([2]; 20 ppm astaxanthin in diet): 6.20 lb
- ADG ([2]; 20 ppm astaxanthin in diet): 1.99 lb
- F/G ([2]; 20 ppm astaxanthin in diet): 3.16
- Final Wt. ([2]; 20 ppm astaxanthin in diet): 267 lb
- ADG versus control pigs [2, 5]: not significantly different
- F/G versus control pigs [2, 5]: not significantly different
- average daily feed intake, trend ([2]; with increasing level of astaxanthin (0, 5, 10, 20 ppm)): tended to decrease
- effect on production performance ([3]; 0, 1.5 and 3.0 ppm astaxanthin in the diet): no significant effect
- effect on dressing percentage, backfat thickness and loin muscle area ([3]; with increasing dietary astaxanthin level (0, 1.5, 3.0 ppm)): linear effect
- percent fat-free lean (PFFL), comparison of doses ([4]; 5 or 10 ppm astaxanthin versus 0 or 20 ppm, p<0.10): greatest percent fat-free lean
- Loin eye area [4, 6]: 7.72 sq. in.
- Loin eye color CIE L* [4, 6]: 55.3
- Loin eye color CIE a* [4, 6]: 10.1
- Loin eye color CIE b* [4, 6]: 14.8
- Backfat-1st rib [4, 6]: 1.40 in.
- Backfat-10th rib [4, 6]: 0.65 in.
- Backfat-Last Lumbar [4, 6]: 0.60 in.
- Backfat-Last rib [4, 6]: 0.65 in.
- Fat-Free Lean [4, 7]: 55.6%
- Hot Carcass Wt. [4, 7]: 192 lb
- Live Wt. [4, 7]: 273 lb
- Standardized Fat-Free Lean [4, 7]: 107 lb
- Yield [4, 7]: 70.6%
- Loin eye area [4, 8]: 7.58 sq. in.
- Loin eye color CIE L* [4, 8]: 58.9
- Loin eye color CIE a* [4, 8]: 8.2
- Loin eye color CIE b* [4, 8]: 14.4
- Backfat-1st rib [4, 8]: 1.33 in.
- Backfat-10th rib [4, 8]: 0.65 in.
- Backfat-Last Lumbar [4, 8]: 0.56 in.
- Backfat-Last rib [4, 8]: 0.67 in.
- Fat-Free Lean [4, 9]: 55.5%
- Hot Carcass Wt. [4, 9]: 191 lb
- Live Wt. [4, 9]: 271 lb
- Standardized Fat-Free Lean [4, 9]: 106 lb
- Yield [4, 9]: 70.6%
- Loin eye area [4, 10]: 7.28 sq. in.
- Loin eye color CIE L* [4, 10]: 56.2
- Loin eye color CIE a* [4, 10]: 10.3
- Loin eye color CIE b* [4, 10]: 15.1
- Backfat-1st rib [4, 10]: 1.41 in.
- Backfat-10th rib [4, 10]: 0.70 in.
- Backfat-Last Lumbar [4, 10]: 0.57 in.
- Backfat-Last rib [4, 10]: 0.64 in.
- Fat-Free Lean [4, 11]: 54.5%
- Hot Carcass Wt. [4, 11]: 189 lb
- Live Wt. [4, 11]: 270 lb
- Standardized Fat-Free Lean [4, 11]: 103 lb
- Yield [4, 11]: 70.3%
- carcass traits and meat quality, benefit over lower doses ([4]; 20 ppm astaxanthin in the diet, optimum 5 to 10 ppm): no additional benefit
- backfat depth measured at the first rib, tenth rib and last rib, versus control ([4]; pigs fed astaxanthin, p<0.10): less backfat depth
